Data as given in US6784205B2, “Compounds that modulate the activity of PTP-1B and TC-PTP” (Sunesis Pharmaceuticals, Inc., priority 2002, dated 2004).

Legend:
human PTP-1B = biological target: T1, human PTP-1B (Homo sapiens, UniProt P18031); assay: PTP-1B IC50 determination with pNPP substrate; type: biochemical
T1 construct: A shorter cDNA, PTP-1B 298, encoding amino acid residues 1-298 was generated; made in house; host or cells: E. coli BL21 codon plus (Stratagene), pRSETc
T1 sequence (P18031 1-298): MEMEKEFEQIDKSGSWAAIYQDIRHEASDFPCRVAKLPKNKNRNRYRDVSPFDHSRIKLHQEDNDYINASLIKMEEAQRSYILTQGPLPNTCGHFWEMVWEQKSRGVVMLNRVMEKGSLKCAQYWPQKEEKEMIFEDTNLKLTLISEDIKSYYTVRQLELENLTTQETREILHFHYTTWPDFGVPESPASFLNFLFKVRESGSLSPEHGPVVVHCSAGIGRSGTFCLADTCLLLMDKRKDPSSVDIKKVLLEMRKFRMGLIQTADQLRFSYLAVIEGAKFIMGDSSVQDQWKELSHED

[1] = biological target: tyrosine phosphatase leukocyte common antigen related protein (LAR) (Homo sapiens, UniProt P10586); assay: Inhibition of LAR; type: biochemical
TC-PTP = biological target: T2, TC-PTP (Homo sapiens, UniProt P17706); assay: Inhibition of TC-PTP; type: biochemical; conditions: read-out: IC50 against TC-PTP
T2 sequence (P17706 1-415): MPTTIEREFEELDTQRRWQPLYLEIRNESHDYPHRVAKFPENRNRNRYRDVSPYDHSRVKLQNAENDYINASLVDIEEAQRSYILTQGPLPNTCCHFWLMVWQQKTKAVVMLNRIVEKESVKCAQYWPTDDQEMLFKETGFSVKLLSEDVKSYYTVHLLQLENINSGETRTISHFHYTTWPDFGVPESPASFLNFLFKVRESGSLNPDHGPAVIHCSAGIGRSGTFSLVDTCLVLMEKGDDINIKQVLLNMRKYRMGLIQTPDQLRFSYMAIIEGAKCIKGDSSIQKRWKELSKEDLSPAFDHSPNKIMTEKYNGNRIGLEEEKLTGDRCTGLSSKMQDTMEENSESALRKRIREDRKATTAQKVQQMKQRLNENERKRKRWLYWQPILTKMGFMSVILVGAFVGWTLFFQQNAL

[2] = test system: insulin receptor phosphorylation in CHO-IR cells; assay: Insulin receptor phosphorylation in CHO-IR cells (ELISA); type: cell-based; conditions: compound added 1 hour prior to harvesting, FIG. 9
Protocol: This example describes an illustrative assay for quantifying the degree of insulin receptor phosphorylation in cells. Any suitable cells can be used. In this example, CHO-IR cells were grown in DMEM w/10% fetal bovine serum supplemented with penicillin and streptomycin. Cells were plated at a density of 40,000 cells per well in a 96 well plate. The following day, the medium was changed to DMEM without serum and the cells were serum starved for 16 hours. 1 hour prior to harvesting, varying concentrations of a test compound diluted in DMEM were added to the cells. Where indicated, human insulin was added to cells 10 minutes prior to harvesting. Cell were lysed in 30 mM HEPES, 150 mM NaCl, 1% triton X-100, and 0.02% sodium azide. Insulin receptor phosphorylation was quantitated in an ELISA assay as described previously (Jongsoon Lee).

tyrosine phosphatase leukocyte common antigen related protein (LAR), sequence (P10586 30-1907): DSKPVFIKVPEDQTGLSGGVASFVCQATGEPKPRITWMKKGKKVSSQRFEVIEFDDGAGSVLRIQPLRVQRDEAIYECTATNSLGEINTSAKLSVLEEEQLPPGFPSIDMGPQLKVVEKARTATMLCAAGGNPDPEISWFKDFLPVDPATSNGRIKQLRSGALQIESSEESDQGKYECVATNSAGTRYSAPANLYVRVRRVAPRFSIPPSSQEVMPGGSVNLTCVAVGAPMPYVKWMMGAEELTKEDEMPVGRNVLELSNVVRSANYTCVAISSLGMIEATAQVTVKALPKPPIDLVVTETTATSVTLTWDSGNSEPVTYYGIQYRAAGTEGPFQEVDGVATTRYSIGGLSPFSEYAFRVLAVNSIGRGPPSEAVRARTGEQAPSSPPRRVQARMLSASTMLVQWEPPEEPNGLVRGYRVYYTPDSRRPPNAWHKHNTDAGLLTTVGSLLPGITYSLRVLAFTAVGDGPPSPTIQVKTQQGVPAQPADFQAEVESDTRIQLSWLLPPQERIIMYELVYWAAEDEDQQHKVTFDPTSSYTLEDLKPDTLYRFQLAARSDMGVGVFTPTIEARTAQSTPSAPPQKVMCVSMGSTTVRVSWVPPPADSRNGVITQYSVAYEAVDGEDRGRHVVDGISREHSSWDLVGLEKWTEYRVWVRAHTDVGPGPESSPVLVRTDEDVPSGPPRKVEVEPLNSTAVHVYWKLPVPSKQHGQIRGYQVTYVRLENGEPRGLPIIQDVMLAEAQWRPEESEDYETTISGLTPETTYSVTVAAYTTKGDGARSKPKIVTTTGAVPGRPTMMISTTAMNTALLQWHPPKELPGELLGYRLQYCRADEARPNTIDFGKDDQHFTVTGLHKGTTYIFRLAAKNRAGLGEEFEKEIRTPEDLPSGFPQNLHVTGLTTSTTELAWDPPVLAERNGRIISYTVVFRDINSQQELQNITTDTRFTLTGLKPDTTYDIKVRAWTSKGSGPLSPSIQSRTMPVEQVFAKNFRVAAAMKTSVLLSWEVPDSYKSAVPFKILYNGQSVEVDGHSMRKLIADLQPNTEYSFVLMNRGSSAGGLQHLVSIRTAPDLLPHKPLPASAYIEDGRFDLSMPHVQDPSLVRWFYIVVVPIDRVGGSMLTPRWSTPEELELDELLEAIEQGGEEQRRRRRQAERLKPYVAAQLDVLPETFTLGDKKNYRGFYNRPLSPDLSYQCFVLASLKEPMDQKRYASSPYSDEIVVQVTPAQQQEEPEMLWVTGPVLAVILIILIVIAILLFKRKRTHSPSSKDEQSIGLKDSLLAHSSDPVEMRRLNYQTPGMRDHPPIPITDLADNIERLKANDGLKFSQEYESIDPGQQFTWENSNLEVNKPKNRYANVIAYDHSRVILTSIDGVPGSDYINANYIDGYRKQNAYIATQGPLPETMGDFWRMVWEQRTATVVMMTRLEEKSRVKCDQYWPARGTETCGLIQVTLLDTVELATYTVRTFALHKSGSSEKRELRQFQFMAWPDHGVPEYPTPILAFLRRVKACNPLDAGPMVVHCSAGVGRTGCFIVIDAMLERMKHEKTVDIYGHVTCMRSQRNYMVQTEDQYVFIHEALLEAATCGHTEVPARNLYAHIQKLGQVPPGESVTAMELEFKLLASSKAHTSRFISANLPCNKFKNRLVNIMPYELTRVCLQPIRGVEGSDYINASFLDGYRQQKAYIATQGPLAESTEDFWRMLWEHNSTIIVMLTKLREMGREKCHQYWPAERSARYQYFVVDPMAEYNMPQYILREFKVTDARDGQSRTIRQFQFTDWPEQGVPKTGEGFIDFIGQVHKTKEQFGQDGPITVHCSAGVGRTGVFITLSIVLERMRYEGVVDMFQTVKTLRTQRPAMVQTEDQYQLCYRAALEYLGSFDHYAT

CCc1oc2cc(S(=O)(=O)Nc3ccc(S(N)(=O)=O)cc3)ccc2c1C(=O)c1cc(Br)c(O)c(Br)c1 [compound 5]
dependence of reaction velocity on substrate concentration (human PTP-1B; pNPP, varying concentrations of inhibitor): sigmoidal dependence | effect on Vmax with increasing inhibitor concentration (human PTP-1B; reaction velocity versus pNPP concentration, FIG. 8): decrease in Vmax | inhibition of LAR [1]: does not inhibit | IC50 (TC-PTP): ~130 µM | level of insulin receptor phosphorylation [2]: is a function of the concentration of compound 5
